Data set [1] relates to LPS induced NO generation in RAW 264.7 cells. The data set is described as follows: Inhibition of LPS induced NO generation (nitrite, Griess reagent). It is filed as cell-based, Mouse. The note with it: for IC50: Mus musculus, read-out: NO inhibition (B) IC50; for Selectivity index (A/B): cytotoxicity IC50 / NO inhibition IC50, RAW 264.7 cells. The procedure: (§1) Mouse macrophage cell line RAW 264.7 was maintained in laboratory at 37° C. in
(§2) RPMI-1640 media supplemented with 10% heat-inactivated fetal bovine serum (FBS) and penicillin/streptomycin.
Nitrite, a stable oxidized product of NO, was measured in culture supernatant using Griess reagent (Sigma Aldrich) according to a previously reported method (2). After overnight seeding in 96-well plate (2×10^4 cells/well), RAW 264.7 cell was treated with lipopolysaccharide (LPS; Sigma) at a concentration of 1 μg/ml along with different doses of compounds (as determined from cytotoxicity assay) in serum-free culture for 24 h. Following treatment, media was collected and centrifuged at 2,000 rpm for 5 min to remove cellular debris. 50 μl of this media was then reacted with equal volume of Griess reagent for 15 min at room temperature in dark and absorbance was taken at 540 nm using Microplate reader (Biorad, USA). Nitrite concentrations were determined using standard solutions of sodium nitrite prepared in cell culture medium.
In general terms: The Griess reaction detects nitrite, a stable product of nitric oxide.

Data set [2] can be described thus: Cytotoxicity assay (MTT viability). It is filed as cell-based, Mouse. The settings on record: mouse; RAW 264.7 cells, MTT, 24 h treatment, serum free. The procedure:
as §1, §2
Viability of cultured cells was determined by (4,5-dimethylthiazol-2-yl)-2,5-diphenyltetrazolium bromide (MTT; Sigma) as described earlier (1). RAW 264.7 was seeded in triplicate at a density of 2×10^4 cells per well on a 96-well plate. […] MTT solution (0.5 mg/ml) was then added to each well and incubate for 4 h at 37° C. At the end of the incubation period, the medium was removed and the resulting purple formazan was solubilized with acidic isopropanol (0.1 N HCl in absolute isopropanol), and the absorbance was read at 570 nm using Biorad Microplate reader (Biorad, USA).

The mark [3] stands for this setting: RAW264.7, RAW 264.7 cells, LPS 1 μg/ml, 24 h, serum-free.

Where two headings read alike, the source gives them in different places.

On to `CC(=O)S[C@]12CCC[C@H]1C(=O)NC2=O` (relative stereo) [Compound 18, S-((3aR*,6aS*)-1,3-Dioxohexahydrocyclopenta[c]pyrrol-3a(1H)-yl) ethanethioate], for which the melting point was 120 to 122 °C. For the same compound, the IC50 in data set [1] (setting [3]) was found to be 59.2 µM. Besides, the “Selectivity index (A/B)” value in data set [1] is listed as 11.39. Moreover, in data set [2], the IC50 at 24 h was determined as 674 µM.
For `O=C(S[C@@]12CC[C@@H](O)[C@@H]1C(=O)NC2=O)c1ccccc1` (relative stereo) [Compound 16, S-((3aS*,6R*,6aR*)-6-Hydroxy-1,3-dioxohexahydrocyclopenta[c]pyrrol-3a(1H)-yl) benzothioate], the melting point is 180 to 182 °C. Moreover, in data set [1] (setting [3]), the IC50 was 65.2 µM. Further, the “Selectivity index (A/B)” value in data set [1] is recorded as 261.7025. This compound also returned an IC50 at 24 h in data set [2] of 17100 µM.
`O=C1NC(=O)C2=C1CCC2SC(=O)c1ccccc1` (stereo not shown): the melting point lay within 149 to 151 °C.
For `O=C(S[C@@]12CC[C@@H](O)[C@@H]1C(=O)NC2=O)c1ccc(F)cc1` (relative stereo) [Compound 11, S-((3aS*,6R*,6aR*)-6-Hydroxy-1,3-dioxohexahydrocyclopenta[c]pyrrol-3a(1H)-yl) 4-fluorobenzothioate], the melting point is 184 to 186 °C. Also, the IC50 in data set [1] (setting [3]) was 318 µM. Moreover, in data set [1], the “Selectivity index (A/B)” value is on record as 1.49. The compound further displayed an IC50 at 24 h in data set [2] of 474 µM.
Take `O=C(S[C@]12CCC[C@H]1C(=O)NC2=O)c1ccc(F)cc1` (relative stereo) [Compound 20, S-((3aR*,6aS*)-1,3-Dioxohexahydrocyclopenta[c]pyrrol-3a(1H)-yl) 4-fluorobenzothioate]: the melting point lay in the range of 186 to 187 °C. Also, the IC50 in data set [1] (setting [3]) is 390 µM. Moreover, in data set [1], the “Selectivity index (A/B)” value was determined as 0.9841. In data set [2], this compound yielded an IC50 at 24 h of 384 µM.
In turn, `CC(=O)SC12CCC=C1C(=O)NC2=O` (stereo not drawn) [Compound 26, S-(1,3-Dioxo-2,3,4,5-tetrahydrocyclopenta[c]pyrrol-3a(1H)-yl)ethanethioate] came in with a melting point of 170 to 172 °C. The IC50 in data set [1] (setting [3]) stood at 20.5 µM. Also, the “Selectivity index (A/B)” value in data set [1] is listed as 9. This compound also displayed an IC50 at 24 h in data set [2] of 184 µM.
In the case of `O=C(Cc1ccccc1)SC12CCC=C1C(=O)NC2=O` (stereo not drawn) [Compound 27, S-(1,3-Dioxo-2,3,4,5-tetrahydrocyclopenta[c]pyrrol-3a(1H)-yl) 2-phenylethanethioate], the melting point fell in the range of 155 to 158 °C. Also, the IC50 in data set [1] (setting [3]) was 30.6 µM. Moreover, the “Selectivity index (A/B)” value in data set [1] worked out at 3.042. Besides, it took 93.1 µM to reach half-maximal inhibition in data set [2] (IC50 at 24 h).
For `O=C(S[C@@]12CC[C@H](O)[C@@H]1C(=O)NC2=O)c1ccccc1Cl` (relative stereo) [Compound 13, S-((3aS*,6S*,6aR*)-6-Hydroxy-1,3-dioxohexahydrocyclopenta[c]pyrrol-3a(1H)-yl) 2-chlorobenzothioate], the melting point was 173 to 174 °C. Moreover, the IC50 in data set [1] (setting [3]) is 127 µM. In data set [1], the “Selectivity index (A/B)” value amounted to 5.245. This compound had an IC50 at 24 h in data set [2] of 668 µM.
For `O=C(S[C@@]12CC[C@@H](O)[C@@H]1C(=O)NC2=O)c1ccccc1Cl` (relative stereo) [Compound 14, S-((3aS*,6R*,6aR*)-6-Hydroxy-1,3-dioxohexahydrocyclopenta[c]pyrrol-3a(1H)-yl) 2-chlorobenzothioate] the same measures were 154 to 158 °C, 178 µM, 4.022 and 717 µM.
`O=C1NC(=O)C2(SC(=O)c3ccc(F)cc3)CCC=C12` (stereo not shown): the melting point lay within 191 to 192 °C.
`O=C1NC(=O)C2=C1CCC2SC(=O)c1cccs1` (stereo not drawn) [Compound 29, S-(1,3-Dioxo-1,2,3,4,5,6-hexahydrocyclopenta[c]pyrrol-4-yl) thiophene-2-carbothioate]: the melting point lay within 138 to 139 °C. In data set [1] (setting [3]), the IC50 was 65 µM. Further, the “Selectivity index (A/B)” value in data set [1] amounted to 0.4108. Inhibition in data set [2] was half-maximal at 26.7 µM (IC50 at 24 h).
Take `O=C(S[C@@]12CC[C@@H](O)[C@@H]1C(=O)NC2=O)c1ccccc1O` (relative stereo): the melting point was 213 to 216 °C.
`CC(=O)S[C@@]12CC[C@@H](O)[C@@H]1C(=O)NC2=O` (relative stereo) [Compound 8, S-((3aS*,6R*,6aR*)-6-Hydroxy-1,3-dioxohexahydrocyclopenta[c]pyrrol-3a(1H)-yl) ethanethioate] displayed a melting point of 120 to 129 °C. Besides, the IC50 in data set [1] (setting [3]) amounted to 833 µM. Besides, the “Selectivity index (A/B)” value in data set [1] turned out to be 1.029. The IC50 at 24 h in data set [2] is 857 µM.
As for `O=C(Cc1ccccc1)S[C@]12CC[C@@H](O)[C@H]1C(=O)NC2=O` (relative stereo) [Compound 9, S-((3aR*,6R*,6aS*)-6-Hydroxy-1,3-dioxohexahydrocyclopenta[c]pyrrol-3a(1H)-yl) 2-phenylethanethioate], in data set [1] (setting [3]), the IC50 was found to be 132 µM. Also, the “Selectivity index (A/B)” value in data set [1] turned out to be 6.322. The same compound showed an IC50 at 24 h in data set [2] of 834 µM.
For `CC(=O)OC1CC[C@]2(SC(=O)Cc3ccccc3)C(=O)NC(=O)[C@H]12` (relative stereo) [Compound 32, (3aS*,6aR*)-1,3-Dioxo-6a-((2-phenylacetyl)thio) octahydrocyclopenta[c]pyrrol-4-yl acetate], the IC50 in data set [1] (RAW264.7, 24 h) amounted to 68.2 µM. In addition, the “Selectivity index (A/B)” value in data set [1] stood at 23.57. For the same compound, half-maximal inhibition in data set [2] (IC50 at 24 h) required 1610 µM.
With `O=C(S[C@@]12CC[C@@H](O)[C@@H]1C(=O)NC2=O)c1ccc(O)cc1` (racemic) [(±)-2, S-((3aS*,6R*,6aR*)-6-hydroxy-1,3-dioxohexahydrocyclopenta[c]pyrrol-3a(1H)-yl) 4-hydroxybenzothioate], the concentration for half-maximal inhibition (IC50) in data set [1] (setting [3]) was determined as 225 µM. Besides, the “Selectivity index (A/B)” value in data set [1] was 1.925. This compound displayed an IC50 at 24 h in data set [2] of 434 µM.
For `O=C(Cc1ccccc1)S[C@@]12CC[C@@H](O)[C@@H]1C(=O)NC2=O` (relative stereo) [Compound 10, S-((3aS*,6R*,6aR*)-6-Hydroxy-1,3-dioxohexahydrocyclopenta[c]pyrrol-3a(1H)-yl) 2-phenylethanethioate] the same measures were 143 µM, 5.418 and 774 µM.
For `O=C(Cc1ccccc1)S[C@]12CCC[C@H]1C(=O)NC2=O` (relative stereo) [Compound 19, S-((3aR*,6aS*)-1,3-Dioxohexahydrocyclopenta[c]pyrrol-3a(1H)-yl) 2-phenylethanethioate] the same measures were 56.9 µM, 7.48 and 426 µM.
Turning to `CC(=O)OC1CC[C@]2(SC(=O)c3ccc(F)cc3)C(=O)NC(=O)[C@H]12` (relative stereo) [Compound 33, (3aS*,6aR*)-6a-((4-Fluorobenzoyl)thio)-1,3-dioxooctahydrocyclopenta[c]pyrrol-4-yl acetate], in data set [1] (setting [3]), the IC50 was found to be 34.3 µM. Moreover, the “Selectivity index (A/B)” value in data set [1] is listed as 353.8076. The compound also yielded an IC50 at 24 h in data set [2] of 12100 µM.
For the compound `O=C(SC1CC[C@]2(SC(=O)c3ccc(F)cc3)C(=O)NC(=O)[C@H]12)c1ccc(F)cc1` (relative stereo) [Compound 23, S,S′-((3aR*,6aR*)-1,3-Dioxohexahydrocyclopenta[c]pyrrole-3a,6(1H)-diyl) bis(4-fluorobenzothioate)], the IC50 in data set [1] (RAW264.7, 24 h) was found to be 98.3 µM. Besides, the “Selectivity index (A/B)” value in data set [1] worked out at 2.142. In data set [2], 211 µM corresponded to half-maximal inhibition (IC50 at 24 h).

As a reminder, the IC50 is the concentration that gives 50% inhibition. By melting point is commonly meant the temperature, or range, at which the solid turns liquid.

The values above are taken from patent publication US10239836B2, “Benzenecarbothioccyclopenta[c] pyrrole-1,3-dione compounds and process for synthesis thereof” (Council of Scientific & Industrial Research, priority 2014, dated 2019).
